# Tests used:
# Test in all cases: In Vitro Kinase Assay
# [1] = biological target: Cyclin-dependent kinase 1 (Homo sapiens, UniProt P06493)
# Description: (§1) Kinase assay using cyclin-dependant kinases (CDK).
# [2] = biological target: Cyclin-dependent kinase 2 (Homo sapiens, UniProt P24941)
# Description: as §1
# [3] = biological target: Cyclin-dependent kinase 4 (Homo sapiens, UniProt P11802)
# Description: as §1
# [4] = biological target: Cyclin-dependent kinase 7 (Homo sapiens, UniProt P50613)
# Cyclin-dependent kinase 7, sequence (P50613 whole entry): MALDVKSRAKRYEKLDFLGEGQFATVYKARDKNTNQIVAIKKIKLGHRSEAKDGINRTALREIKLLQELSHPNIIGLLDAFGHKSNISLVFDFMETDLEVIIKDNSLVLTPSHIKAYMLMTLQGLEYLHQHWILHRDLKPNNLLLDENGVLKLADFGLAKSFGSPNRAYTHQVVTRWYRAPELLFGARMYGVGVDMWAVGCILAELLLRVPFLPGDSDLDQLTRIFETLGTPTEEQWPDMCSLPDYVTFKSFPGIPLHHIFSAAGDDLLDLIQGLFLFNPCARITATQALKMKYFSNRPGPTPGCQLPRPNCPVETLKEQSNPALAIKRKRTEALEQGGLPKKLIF
# Description: as §1
# [5] = biological target: Cyclin-dependent kinase 9 (Homo sapiens, UniProt P50750)
# Cyclin-dependent kinase 9, sequence (P50750 whole entry): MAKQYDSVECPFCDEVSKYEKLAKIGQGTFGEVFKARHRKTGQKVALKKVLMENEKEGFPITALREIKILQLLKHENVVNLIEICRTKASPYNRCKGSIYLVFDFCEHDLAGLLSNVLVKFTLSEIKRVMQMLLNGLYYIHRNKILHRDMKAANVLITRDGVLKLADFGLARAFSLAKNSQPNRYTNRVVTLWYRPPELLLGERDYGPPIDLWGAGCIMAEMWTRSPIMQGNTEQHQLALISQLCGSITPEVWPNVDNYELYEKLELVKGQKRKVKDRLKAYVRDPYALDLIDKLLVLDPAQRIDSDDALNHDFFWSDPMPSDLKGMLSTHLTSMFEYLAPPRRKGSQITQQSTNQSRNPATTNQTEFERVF
# Description: as §1
# Cyclin-dependent kinase 1, sequence (P06493 whole entry): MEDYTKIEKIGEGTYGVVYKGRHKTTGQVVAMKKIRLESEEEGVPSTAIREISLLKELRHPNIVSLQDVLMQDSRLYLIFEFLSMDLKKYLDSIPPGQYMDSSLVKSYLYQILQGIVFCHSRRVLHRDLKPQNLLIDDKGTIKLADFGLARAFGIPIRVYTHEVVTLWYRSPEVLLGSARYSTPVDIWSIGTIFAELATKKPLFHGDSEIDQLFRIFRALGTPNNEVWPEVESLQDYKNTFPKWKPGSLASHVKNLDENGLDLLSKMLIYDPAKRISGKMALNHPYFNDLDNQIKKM
# Cyclin-dependent kinase 4, sequence (P11802 whole entry): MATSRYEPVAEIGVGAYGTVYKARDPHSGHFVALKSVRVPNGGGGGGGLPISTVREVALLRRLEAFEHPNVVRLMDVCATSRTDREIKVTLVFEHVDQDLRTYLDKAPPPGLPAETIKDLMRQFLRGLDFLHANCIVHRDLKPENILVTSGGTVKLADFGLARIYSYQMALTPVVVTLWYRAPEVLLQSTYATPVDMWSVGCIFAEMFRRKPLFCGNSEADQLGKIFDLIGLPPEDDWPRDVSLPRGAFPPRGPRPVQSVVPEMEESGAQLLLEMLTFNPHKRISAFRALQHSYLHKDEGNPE
SMILES,Ki [1] [nM],Ki [2] [nM],Ki [3] [nM],Ki [4] [nM],Ki [5] [nM]
"CCNc1nc(C)c(-c2ccnc(Nc3cccc(S(N)(=O)=O)c3)n2)s1 [CDK Inhibitor, 2]",691,403,132,56,4.5
"CNc1nc(C)c(-c2ccnc(Nc3cccc(S(N)(=O)=O)c3)n2)s1 [CDK Inhibitor, 3]",67,2.4,9.1,25,0.8
"CNc1nc(C)c(-c2ccnc(Nc3cccc(S(=O)(=O)NC)c3)n2)s1 [CDK Inhibitor, 4]",334,33,20,107,4.3
"CNS(=O)(=O)c1cccc(Nc2nccc(-c3sc(N)nc3C)n2)c1 [CDK Inhibitor, 5]",233,26,163,127,4.3
"CNc1nc(C)c(-c2ccnc(Nc3cccc(S(C)(=O)=O)c3)n2)s1 [CDK Inhibitor, 6]",86,1.6,94,91,0.29
"CCNc1nc(C)c(-c2ccnc(Nc3cccc(S(C)(=O)=O)c3)n2)s1 [CDK Inhibitor, 7]",> 500,7.6,139,47,0.96
"CCNS(=O)(=O)c1cccc(Nc2nccc(-c3sc(N)nc3C)n2)c1 [CDK Inhibitor, 8]",660,47,391,193,5.9
"CNc1nc(C)c(-c2ccnc(Nc3ccc(C)c(S(=O)(=O)N4CCOCC4)c3)n2)s1 [CDK Inhibitor, 9]",> 500,> 500,> 500,3470,6.7
"Cc1ccc(Nc2nccc(-c3sc(N)nc3C)n2)cc1S(=O)(=O)N1CCOCC1 [CDK Inhibitor, 10]",> 500,> 500,> 500,304,8.5
"COCCNS(=O)(=O)c1ccc(Nc2nccc(-c3sc(=O)n(C)c3C)n2)cc1 [CDK Inhibitor, 11]",,,> 500,,
"Cc1c(-c2ccnc(Nc3cccc(C#N)c3)n2)sc(=O)n1C [CDK Inhibitor, 12]",,0.52,102,,
"Cc1ccc(Nc2nccc(-c3sc(=O)n(C)c3C)n2)cc1[N+](=O)[O-] [CDK Inhibitor, 13]",3,28,60,0.56,5.9
"Cc1c(-c2ccnc(Nc3ccc(N4CCNCC4)cc3)n2)sc(=O)n1C [CDK Inhibitor, 14]",449,149,68,2.3,0.38
